Measurements as given in patent publication US12115233B2, “Imaging and radiotherapeutics agents targeting fibroblast-activation protein-α (FAP-α)” (The Johns Hopkins University, priority 2017, dated 2024).

Assays:
human recombinant FAP = molecular target: T1, human recombinant FAP (Homo sapiens, UniProt Q12884); test: FAP Inhibition Assay (fluorogenic FAP Assay Kit); format: biochemical; settings: DPP substrate, 10 minutes at room temperature, Ki from IC50 by Cheng-Prusoff conversion, read-out: enzyme inhibitory constant (Ki)
T1 construct: purchased BPS Bioscience, San Diego, CA
T1 sequence (Q12884 26-760 limits assumed): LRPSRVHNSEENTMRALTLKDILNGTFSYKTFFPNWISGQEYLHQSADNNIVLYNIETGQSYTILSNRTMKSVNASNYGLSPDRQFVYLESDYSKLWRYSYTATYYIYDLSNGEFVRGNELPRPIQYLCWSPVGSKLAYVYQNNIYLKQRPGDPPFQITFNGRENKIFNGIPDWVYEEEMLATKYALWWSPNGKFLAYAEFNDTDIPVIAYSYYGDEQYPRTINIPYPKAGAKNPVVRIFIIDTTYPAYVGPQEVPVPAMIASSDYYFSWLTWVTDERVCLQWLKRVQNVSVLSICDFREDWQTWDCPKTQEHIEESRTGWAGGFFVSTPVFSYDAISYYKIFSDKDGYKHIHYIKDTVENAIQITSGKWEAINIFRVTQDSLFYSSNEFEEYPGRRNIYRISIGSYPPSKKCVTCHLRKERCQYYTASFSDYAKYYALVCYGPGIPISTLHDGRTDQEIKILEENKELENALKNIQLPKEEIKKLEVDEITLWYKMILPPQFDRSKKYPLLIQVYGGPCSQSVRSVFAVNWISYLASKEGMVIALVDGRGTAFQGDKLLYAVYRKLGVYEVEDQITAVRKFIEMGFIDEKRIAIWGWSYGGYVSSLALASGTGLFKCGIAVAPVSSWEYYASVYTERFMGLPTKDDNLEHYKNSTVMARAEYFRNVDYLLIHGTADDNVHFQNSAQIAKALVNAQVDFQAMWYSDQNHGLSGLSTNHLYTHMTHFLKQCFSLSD
Experimental: 1.4 FAP Inhibition Assay. The inhibitory activity of XY-FAP-01 was determined using a fluorogenic FAP Assay Kit (BPS Bioscience, San Diego, CA). Briefly, XY-FAP-01, DPP substrate, and human recombinant FAP were loaded into a 96 well plate to initiate the enzyme reaction. The reaction was left for 10 minutes at room temperature before fluorescence was measured with a VICTOR3 V multilabel plate reader (PerkinElmer Inc., Waltham, MA). Data was normalized and semi-log inhibition curves were generated in order to determine the IC50 value (concentration of XY-FAP-01 where the enzyme activity is 50% inhibited) for XY-FAP-01 and subsequent enzyme inhibition constant (Ki) using the Cheng-Prusoff conversion. Generation of semi-log inhibition curves and IC50 values were done using GraphPad Prism (San Diego, CA).

[1] = system: FAP+ U-87-MG tumor xenograft; test: Small-animal NIRF imaging, FAP positive xenograft; format: in vivo, NOD/SKID mice
Experimental: (§1) 1.7 Small-Animal Near Infrared Fluorescence (NIRF) Imaging. NIRF images were acquired on the LI-COR Pearl Impulse Imager using an excitation wavelength of 785 nm and a detection wavelength of 800 nm. Mice utilized for imaging studies were anesthetized with 3% isofluorane (v/v) and maintained at 1.5% isofluorane for the imaging procedure. NOD/SKID mice bearing FAP+ U-87-MG and FAP-PC-3 tumor xenografts were injected with 10 nmol of XY-FAP-01 via tail vein injection and images were acquired at 30 min, 1 h, 2 h, 2.5 h, and 4 h after injection of tracer.
(§2) 1.11 Xenograft Tumor Model. 6-week old female NOD/SCID mice were subcutaneously injected in the upper left and right flanks with 1 million U87(FAP+) cells and PC3 cells (FAP-) in RPMI 1640 media supplemented with 1% FBS. Mice were monitored for tumor size and used for optical or SPECT/CT imaging when the size of tumor reached around 100 mm3.

[2] = Small-animal NIRF imaging, tracer clearance; format: in vivo, NOD/SKID mice; settings: after one hour of distribution
Experimental: as §1, §2

FAP-PC-3 tumor xenograft = test: Small-animal NIRF imaging, FAP negative xenograft; format: in vivo, NOD/SKID mice; settings: all imaging time points (30 min to 4 h)
Experimental: as §1, §2

[3] = system: FAP-negative cell lines (PC3, NCIH226, and HCT116); test: Cellular uptake of XY-FAP-01 in FAP-negative cell lines (fluorescence imaging); format: cell-based, human; settings: all concentrations (50 nM to 0.78 nM)
Description: (§3) 1.5 Cell lines. Six human cancer cell lines were used to assess binding to FAP: glioblastoma (U-87-MG), melanoma (SK-MEL-24), prostate (PC-3), non-small cell lung cancer (NCI-H2228), colorectal carcinoma (HCT 116), and lung squamous cell carcinoma (NCI-H226). From the literature, U-87-MG, SK-MEL-24, and NCI-H2228 cell lines were identified as having high levels of FAP expression [FAP-positive (+)] whereas PC-3, NCI-H226, and HCT 116 cells expressed very low levels of FAP [FAP-negative(−)]. These expression profiles were further confirmed via flow cytometry with an APC-conjugated anti-FAP antibody (R&D Systems, Minneapolis, MN) and quantitative real-time PCR. All cell lines were purchased from American Type Culture Collection (ATCC, Manassas, VA).
1.6 Cellular Uptake Studies. All cellular uptake and specific binding studies were performed in triplicate to ensure reproducibility. Cells were detached using 0.05% trypsin (Corning), resuspended in 1 million cell aliquots in binding buffer, and incubated with various concentrations (range, 50 nM to 0.78 nM) of XY-FAP-01 for 1 hour at 37° C. and 5% CO2. […] Cellular uptake was terminated by washing cells with ice cold PBS (1×) three times. […] Images were analyzed using the LI-COR Pearl Impulse Software (Version 2.0) and fluorescence intensity was corrected for background signal and normalized to well area.

[4] = system: FAP-positive cell lines (NCIH2228, U87, and SKMEL24); test: Cellular uptake of XY-FAP-01 in FAP-positive cell lines (fluorescence imaging); format: cell-based, human
Description: as §3
1.6 Cellular Uptake Studies. All cellular uptake and specific binding studies were performed in triplicate to ensure reproducibility. Cells were detached using 0.05% trypsin (Corning), resuspended in 1 million cell aliquots in binding buffer, and incubated with various concentrations (range, 50 nM to 0.78 nM) of XY-FAP-01 for 1 hour at 37° C. and 5% CO2. […] Cellular uptake was terminated by washing cells with ice cold PBS (1×) three times. Cells were resuspended in binding buffer and transferred to a 96-well plate for imaging. Images were acquired on the LI-COR Pearl Impulse Imager (Lincoln, NE) using an excitation wavelength of 785 nm and detection of the emission wavelength at 800 nm. Images were analyzed using the LI-COR Pearl Impulse Software (Version 2.0) and fluorescence intensity was corrected for background signal and normalized to well area.

- Ki (human recombinant FAP): 1.26 nM
SMILES: CC1(C)C(=CC=C2CCCC(C=CC3=[N+](CCCCCC(=O)NCCCOc4ccc5nccc(C(=O)NCC(=O)N6CCC[C@H]6C#N)c5c4)c4ccc(S(=O)(=O)[O-])cc4C3(C)C)=C2Oc2ccc(S(=O)(=O)O)cc2)N(CCCCS(=O)(=O)O)c2ccc(S(=O)(=O)O)cc21 [XY-FAP-01]
- tracer uptake in U-87-MG xenograft (NIRF) ([1]; 10 nmol via tail vein, as early as 30 minutes post injection): specific uptake
- tracer uptake in the positive xenograft (NIRF) ([1]; after four hours of distribution): retained
- uptake in vivo on FAP-α+ U87 tumor ([1]; summary statement): selective uptake
- tracer clearance (NIRF) [2]: tracer clearance via the bladder was observed
- tracer uptake in the FAP negative tumor (NIRF) (FAP-PC-3 tumor xenograft): no significant uptake
- binding of XY-FAP-01 in FAP-negative cell lines [3]: no significant binding
- uptake of XY-FAP-01 in FAP-positive cell lines ([4]; 50 nM to 0.78 nM, 1 hour at 37° C.): concentration dependent uptake
- XY-FAP-01 binding when preblocked with a DPP-IV specific inhibitor ([4]; FAP-positive cell lines, 25 nM tracer, preblock with Sitagliptin): did not result in a change of binding ability
- concentration at which saturated binding was observed ([4]; FAP-positive cell lines, 1 hour at 37° C.): 25 nM
- XY-FAP-01 binding when preblocked with a FAP and DPP-IV specific inhibitor ([4]; FAP-positive cells, 25 nM tracer, preblock with Val-boroPro (Talabostat)): significantly inhibited
- uptake in vitro on FAP-α+ U87 cell line ([4]; summary statement): selective uptake
